Assay results taken from patent US20240366648A1, “NAD-AUGMENTATION THERAPY FOR PARKINSON'S DISEASE” (Vestlandets Innovasjonsselskap AS (VIS), priority 2021, published 2024).

Tests used:
cerebral NAD = experiment: 31P-MRS of the brain, phase I trial of oral NR in newly diagnosed PD patients; format: in vivo, human
Method: A trial of tolerability and cerebral bioavailability of NAD supplementation therapy with nicotinamide riboside (“NR”), provided in the form of nicotinamide riboside chloride ([…]® from Chromadex) in PD patients was completed. In the trial, 30 individuals with newly diagnosed, drug naïve PD were randomized and given NR 500 mg×2/day or placebo for a period of 30 days. 31P-MRS was performed at baseline (Visit 1) and at on the last day of treatment (Visit 2). The scans of 27 individuals passed quality control at both visits. A single-center, double-blinded, randomized, placebo-controlled phase I trial of oral NR supplementation in newly diagnosed patients with PD was conducted. […] Due to the early onset, this patient underwent genetic investigation with whole-exome sequencing and SNP-chip based genome-wide copy number variation analysis, which excluded pathogenic mutations in PD-related genes, including PINK1 and PRKN. screening. Patient recruitment, inclusion, and follow-up was carried out by a GCP certified investigator. Sample size of 30 participants was chosen based on previously reported brain metabolic network analyses. Thirty PD patients were randomly assigned (Block size 6, allocation 1:1) to 500 mg NR, provided in the form of nicotinamide riboside chloride ([…]® from Chromadex), or placebo twice per day, 12 hours apart, using the electronic Case Report Form (Viedoc.com). The drug containers were sequentially marked by an independent third party. The […]®) and placebo were provided by ChromaDex, USA. Each NR capsule contained 250 mg of NR. Placebo capsules contained microcrystalline cellulose. The vials and capsules containing NR and placebo were identical in shape, colour, and smell. Study drug compliance was calculated from counting returned number of study capsules and self-reporting. Participants, examining physicians, medical- and research personnel were blinded for the duration of the trial. Sample size was determined by comparing previous literature with respect to the primary objective. At screening for trial entry, candidates underwent physical and neurological examination, brain MRI, and […]. Eligible patients who entered the trial were assessed at baseline (visit 1, V1) and after four weeks of exposure to either NR or placebo (visit 2, V2). At both visits, patients underwent physical and neurological examination, including assessment by the Movement Disorder Society Unified Parkinson's Disease Rating Scale section I-IV (MDS-UPDRS), and biological sampling. MR-PET was performed within one week prior to visit 1, and at visit 2. All participants remained naïve for antiparkinson drugs for the duration of the trial. All clinical assessments were performed by a blinded movement disorders expert. Each patient was examined by the same neurologist at both visits. Methodological details on each procedure are provided below. Safety was monitored through routine clinical blood tests and registration of adverse events. Adverse events (AE) were recorded and scored by the investigative physician. […] The AE relation to the study drug was scored as (1) unrelated, (2) unlikely, (3) possible, (4) probable or (5) definitely. MRI/S was conducted on a 3T Biograph mMR MR-PET scanner (Siemens Healthcare, Germany). Phosphorous MRS (31P-MRS) was performed on a double-resonant transmit/receive 1H/31P volume head-coil (Rapid Biomedical, Germany). […]

NAD metabolome in CSF = experiment: CSF metabolomics (LC-MS); format: in vivo, human; conditions: all NR-recipients; oral NR 1000 mg/day, 30 days
Method: Biological material was collected at both visits, following a minimum 6-hour fasting and within 6 hours after study drug intake for visit 2. Sampling included whole blood, serum, peripheral blood mononuclear cells (PBMCs), cerebrospinal fluid (CSF) and muscle biopsy. Lumbar puncture was performed according to standard clinical procedures to collect 10 ml CSF. Needle biopsy of the vastus lateralis muscle was performed using a Bard Magnum biopsy gun (BD©, United States) and 12G×10 cm biopsy needles. Muscle biopsies were immediately dissected to remove any non-muscle tissue (e.g., fat or fascia) and snap-frozen in liquid nitrogen.
The extraction of metabolites from CSF samples was carried out as follows: 400 μl of each sample were mixed with 1600 μl of ice-cold UHPLC grade methanol. […] Recovery rate was tested for several relevant nucleotides and determined to be 93-96%, depending on the nucleotide.
Metabolite analysis was conducted using a Dionex UltiMate 3000 instrument coupled with an electrospray ionization (ESI) QExactive mass spectrometer (Thermo Scientific). […] Mass spectra were recorded using targeted single ion monitoring with an isolation window of 10 m/z with automatic gain control set to a target of […] and a maximum accumulation time of 300 ms. […] Absolute concentrations were calculated by external calibration curves using pure standards. […]

NC(=O)c1ccc[n+]([C@@H]2O[C@H](CO)[C@@H](O)[C@H]2O)c1 [NR, nicotinamide riboside]
cerebral NAD levels normalized to ATP-α, visit 2 vs baseline (cerebral NAD; NR group n=13, oral NR 500 mg x2/day, 30 days, paired t-test p=0.016): highly significant increase
other metabolites detected by 31P-MRS, change between visits (cerebral NAD; NR group, 30 days): No other detected metabolites exhibited significant change
patients showing an increase in cerebral NAD (MRS-responders) (cerebral NAD; NR recipients with MRS data, 30 days): 10/13
patients with cerebral NAD change exceeding 10% of baseline levels (cerebral NAD; of the 10 MRS-responders among 13 NR recipients): 9
between visit change (visit 2/visit 1) in NAD/ATP-α ratio, NR vs placebo group (cerebral NAD; oral NR 500 mg x2/day, 30 days, t-test p=0.025): significantly higher
CSF Me-2-PY levels (NAD metabolome in CSF): increase
